Test results taken from patent US20240123039A1, “DETOXIFICATION PREPARATIONS WITH REINFORCED BOOSTERS TO TREAT ALCOHOL INTOXICATION” (priority 2022, published 2024).

Legend:
[1] = molecular target: T1, alcohol dehydrogenase (ADH) (Saccharomyces cerevisiae, UniProt P00330); experiment: Effect of NADP concentration on alcohol dehydrogenase activity, OD340 read every minute; assay type: biochemical; conditions: for OD of samples after subtracting OD at time zero vs. Time / OD of samples vs. Time: ADH 84 U/mL, 2.5% ethanol; for OD of samples vs. Time: OD340
T1 construct: purchased Sigma
T1 sequence (P00330 1-348): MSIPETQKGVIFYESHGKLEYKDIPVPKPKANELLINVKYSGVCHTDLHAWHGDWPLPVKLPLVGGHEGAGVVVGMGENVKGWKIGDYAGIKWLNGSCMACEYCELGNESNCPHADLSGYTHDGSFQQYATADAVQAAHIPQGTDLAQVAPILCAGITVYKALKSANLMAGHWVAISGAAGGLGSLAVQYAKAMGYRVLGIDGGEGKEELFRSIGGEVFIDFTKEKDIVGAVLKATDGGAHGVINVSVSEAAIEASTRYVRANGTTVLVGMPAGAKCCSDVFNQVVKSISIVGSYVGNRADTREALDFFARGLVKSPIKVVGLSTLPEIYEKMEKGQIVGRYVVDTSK
Method: 100% ethanol (EtOH) was purchased from VWR. Buffer used was Triz Base at 0.2 M, pH 8.2.
The concentration of ethanol is 2.5% (v/v). And 0.28 mg/mL ADH, equivalent to 84 U/mL.
Multiple samples were prepared as per Table 1. The assay was performed as follows: • 1. […] Place a quartz cuvette into the spectrophotometer. • 3. At time minus 10 seconds, add 0.1 mL enzyme (2 mg/mL ADH or buffer blank) to the cuvette. • 4. Mix by pipetting. Read OD340 at time zero. • 5. Read OD340 every minute for 5 minutes. 6. Repeat for remaining samples.

[2] = cited from earlier work; for safety of human consumption: by mouth up to 1000 mg per dose per day; for side effects of oral intake: orally, up to or more than 1000 mg per day over many years

Nicotinamide Adenine Dinucleotide Phosphate [NADP]
OD of samples after subtracting OD at time zero vs. Time ([1]; 0 min, NADP 8.5 mM final): 0 | OD of samples vs. Time ([1]; 0 min, NADP 8.5 mM final): 0.003 | OD of samples after subtracting OD at time zero vs. Time ([1]; 0 min, NADP 28 mM final): 0 | OD of samples vs. Time ([1]; 0 min, NADP 28 mM final, listed as NADP 3x): 0.749 | OD of samples vs. Time ([1]; 0 min, NADP 28 mM final, listed as NADP 3×): around 0.8 | velocity of ethanol removal by ADH in the higher NADP mixture compared to the lower NADP mixture ([1]; 28 mM vs 8.4 mM NADP, same conc of ADH): about 2 × | OD of samples after subtracting OD at time zero vs. Time ([1]; 1 min, NADP 8.5 mM final): 0.059 | OD of samples vs. Time ([1]; 1 min, NADP 8.5 mM final): 0.062 | OD of samples vs. Time ([1]; 1 min, NADP 28 mM final): 0.860 | OD of samples after subtracting OD at time zero vs. Time ([1]; 2 min, NADP 8.5 mM final): 0.087 | OD of samples vs. Time ([1]; 2 min, NADP 8.5 mM final): 0.090 | OD of samples after subtracting OD at time zero vs. Time ([1]; 2 min, NADP 28 mM final): 0.169 | OD of samples vs. Time ([1]; 2 min, NADP 28 mM final): 0.918 | OD of samples after subtracting OD at time zero vs. Time ([1]; 3 min, NADP 8.5 mM final): 0.098 | OD of samples vs. Time ([1]; 3 min, NADP 28 mM final): 0.948 | OD of samples after subtracting OD at time zero vs. Time ([1]; 4 min, NADP 8.5 mM final): 0.102 | OD of samples vs. Time ([1]; 4 min, NADP 28 mM final): 0.963 | OD of samples after subtracting OD at time zero vs. Time ([1]; 5 min, NADP 28 mM final): 0.223 | OD of samples vs. Time ([1]; 5 min, NADP 28 mM final): 0.972 | OD at higher NADP concentration compared with the lower NADP concentration ([1]; starting at 1 minute, higher vs lower NADP concentration): higher ODs at every time point

NC(=O)c1ccc[n+]([C@@H]2O[C@H](COP(=O)([O-])O)[C@@H](O)[C@H]2O)c1 [NMN, Nicotinamide Mononucleotide]
safety of human consumption [2]: no ill effects | side effects of oral intake [2]: without any detectable undesirable side effects

NC(=O)c1ccc[n+]([C@@H]2O[C@H](CO)[C@@H](O)[C@H]2O)c1 [NR, Nicotinamide Riboside]
safety of human consumption [2]: no ill effects | side effects of oral intake [2]: without any detectable undesirable side effects
